# Like-named read-outs stand apart in the source and are kept apart here.
# How the values were obtained:
# [1] = ADME screening: solubility; assay type: physicochemical; details: Table 8
# [2] = ADME screening: cell permeability and efflux ratio; details: for Cell permeability (Mean recovery %) (in words): Table 8; for efflux ratio: not told
# [3] = test system: interaction between ERCC1 and XPF; details: in vitro; cited from earlier work
# [4] = Microsomal stability in vitro (human liver microsomes); details: for Microsomal stability in vitro CLint (in words): Table 8
# HCT116 cells [5] = experiment: Cytotoxicity profile: crystal violet viability assay (and colony forming assay); assay type: cell-based, human; details: 5 μM, 3 days exposure, crystal violet
# Protocol: Crystal violet viability assays were carried out to assess the cellular toxicity of these compounds to HCT116 cells and to choose relatively non-cytotoxic concentrations to be further utilised in sensitizing cells to UV radiation or cyclophosphamide.
# The beneficial effect is especially visible at a concentration of 5.0 μM. At higher concentrations, both compounds show an equal cytotoxic effect (FIG. 15).
# HCT116 cells [6] = experiment: Clonogenic survival assay, UV treatment; assay type: cell-based, human; details: 254 nm UV 0-10 J/m^2; compound 0.5-4 μM
# Protocol: UV treatment: HCT116 cells (100-800 cells depending on the UV dose) were plated in triplicate in 60-mm petri dishes. The cells were incubated overnight at 37° C. in a humidified atmosphere containing 5% CO2 to allow for cell attachment. […] Medium was removed again, and cells were exposed to increasing doses (0-10 J/m^2) of UV-C radiation and then incubated for a further 10 days in the presence of inhibitor at 37° C. in a 5% CO2 atmosphere to allow for colony formation. After this period plates were stained with crystal violet and colonies were counted using a Colcount instrument (Oxford Optronix, Abingdon UK). Finally, plating efficiency and surviving fraction were calculated.
# serum proteins = experiment: ADME screening: serum protein binding; assay type: in vitro ADME; details: Table 8
# ERCC1-XPF = target: T1, ERCC1-XPF (Homo sapiens, UniProt Q92889); experiment: Microplate fluorescence incision assay of ERCC1-XPF endonuclease activity; assay type: biochemical; details: for inhibition of ERCC1-XPF endonuclease activity (in words): compounds 10 μM each
# T1 construct: His6; made in house; host or cells: E. coli BL21 (DE3)
# T1 sequence (Q92889 1-916): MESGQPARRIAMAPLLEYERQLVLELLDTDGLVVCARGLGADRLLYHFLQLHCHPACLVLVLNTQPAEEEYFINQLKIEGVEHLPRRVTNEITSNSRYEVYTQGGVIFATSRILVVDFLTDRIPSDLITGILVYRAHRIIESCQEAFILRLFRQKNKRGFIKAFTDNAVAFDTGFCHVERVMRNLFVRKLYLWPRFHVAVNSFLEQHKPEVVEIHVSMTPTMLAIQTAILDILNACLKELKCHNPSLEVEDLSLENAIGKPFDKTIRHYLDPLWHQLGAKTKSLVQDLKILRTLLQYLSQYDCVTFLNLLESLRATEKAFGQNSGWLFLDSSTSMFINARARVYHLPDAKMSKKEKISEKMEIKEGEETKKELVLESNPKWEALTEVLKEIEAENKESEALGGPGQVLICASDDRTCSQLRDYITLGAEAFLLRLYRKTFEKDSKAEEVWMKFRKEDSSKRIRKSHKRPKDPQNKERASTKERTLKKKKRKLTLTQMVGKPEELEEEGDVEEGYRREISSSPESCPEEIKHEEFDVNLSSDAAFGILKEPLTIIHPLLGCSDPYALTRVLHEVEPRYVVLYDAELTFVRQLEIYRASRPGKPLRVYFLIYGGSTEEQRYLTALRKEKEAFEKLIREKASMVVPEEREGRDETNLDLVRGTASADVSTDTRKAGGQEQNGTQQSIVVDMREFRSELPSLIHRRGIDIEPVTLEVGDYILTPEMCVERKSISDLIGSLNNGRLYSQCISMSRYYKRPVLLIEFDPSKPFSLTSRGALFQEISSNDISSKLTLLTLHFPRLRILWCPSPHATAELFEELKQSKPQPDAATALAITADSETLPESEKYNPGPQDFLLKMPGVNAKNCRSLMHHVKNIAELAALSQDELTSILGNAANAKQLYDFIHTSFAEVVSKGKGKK
# Excerpt: This assay has been previously described (29), and utilizes a stem-loop substrate (composed of a 10mer-duplex stem and a 20mer-oligodT single-strand loop), labelled on the 5′-terminus with 6-FAM and 3′ with the quencher dabcyl.
# Human ERCC1-XPF wild-type protein was obtained as previously described (29). Basically, the recombinant protein was expressed from a bicistronic plasmid (provided by Dr. Richard Wood, University of Texas MD Anderson Cancer Center, Smithville, Tex.) in the E. coli BL21 (DE3) strain. Since both XPF and ERCC1 contained a polyhistidine (His-6) tag, the proteins extracted from E. coli were incubated with a ProBond Nickel-Chelating Resin (Thermo Fisher Scientific). Protein eluted from the Ni affinity column was subsequently loaded into a Hi-trap heparin column (GE Healthcare). Fractions recovered from the heparin column that contained ERCC1-XPF were dialyzed, concentrated and stored at −80° C. in 10 mM HEPES pH 7.4, 2.5 mM p-mercaptoethanol, 0.01% CHAPS, 0.25 mM EDTA, 50% glycerol and 25 mM NaCl.
# A previously described protocol (2,29) was followed.
# cancer cells = details: cited from earlier work
# ERCC1-XPF complex = target: T2, ERCC1-XPF complex (Homo sapiens, UniProt Q92889); experiment: Steady-state intrinsic tryptophan fluorescence quenching binding assay
# T2 construct: His6; made in house; host or cells: E. coli BL21 (DE3)
# T2 sequence (Q92889 1-916): T1 sequence (Q92889 1-916)
# Protocol: Steady-state fluorescence spectra were measured at room temperature on a Perkin-Elmer LS-55 spectrofluorometer (Freemont, Calif.) with 5 nm spectral resolution for excitation and emission using 30-80 nM solution of purified recombinant ERCC1-XPF protein complex. […] In studying the effects of inhibitors on protein fluorescence intensities, additions to protein samples were made from inhibitors stock solutions, keeping the protein dilution below 3%.
# [7] = test system: five CYP450 tested enzymes; experiment: ADME screening: CYP inhibition (five CYP450 enzymes); details: Table 8
# [8] = test system: five CYP450 enzymes (CYP1A2, CYP2C9, CYP2C19, CYP2D6, CYP3A4-M); experiment: as above; details: human
# [9] = Hepatocyte stability in vitro; assay type: in vitro ADME; details: Table 8
# HCT116 cells [10] = experiment: Clonogenic survival assay, cyclophosphamide treatment; assay type: cell-based, human; details: cyclophosphamide 0-300 μM; compound 1-4 μM
# Protocol: Plates were incubated for another 8 days at 37° C. in a 5% CO2 atmosphere for colony formation. After this period plates were stained with crystal violet, colonies were counted, and plating efficiency and surviving fraction were calculated.
# HCT116 cells [11] = experiment: Cellular repair of UV-induced cyclobutane pyrimidine dimers (immunofluorescence); assay type: cell-based, human; details: 8 J/m^2 UV-C, up to 24 h post-irradiation
# Protocol: Protocol of Mirzayans et al. was followed with minor modifications (30). Approximately 1×10^5 HCT116 cells were seeded on each coverslip and allowed to attach overnight. Medium was then removed and cells were treated for one hour with the desired compound. The medium was removed, and cells were exposed to 8 J/m^2 UV-C radiation (G15T8 254 nm lamp, Ushio America Inc, Cypress, Calif.) followed by adding fresh medium containing the compound. Plates were incubated at 37° C. for different periods of time up to 24 hours and fixed in 50:50 methanol/1× phosphate-buffered saline (PBS) solution, followed by replacing the methanol/PBS solution with 100% methanol and incubation in −20° C. After 20 minutes, methanol was removed, and cells were treated with PBS for 5 minutes in room temperature. After fixing, cells were permeabilized in 0.5% Triton/PBS and washed with PBS, denatured in 2 N HCl, and neutralized by twice washing with 0.1 M borate buffer pH 8.5. Cells on cover slips were washed once with PBS followed by blocking with 5% non-fat dry milk/PBS for 30 minutes. Mouse anti-thymine dimer monoclonal antibody (Cat. No. MC-062, Kamiya Biomedical Company, Seattle, Wash.) was applied to the cover slips for one hour in the dark and at room temperature. Cells were then washed with PBS containing 0.1% Tween-20 and incubated with rabbit anti-mouse IgG-Alexafluor antibody (Invitrogen, Carlsbad, Calif.) followed by two washes with PBS/(0.1%)Tween-20. Cells on coverslips were then washed with PBS, rinsed with water, and mounted on slides using DAPI glycerol mounting solution. Slides were kept at 4° C. before fluorescent microscopic evaluation and measurement of fluorescence intensity with MetaXpress Version: 6.2.1.704 software (Molecular Devices, Sunnyvale, Calif.).
# To test for inhibition of nucleotide excision repair, we monitored the cellular removal of UVC-induced cyclobutane pyrimidine dimers (CPDs) in HCT116 cells over a 24-hour period using an immunochemical assay.
# DNA = experiment: Binding constant to DNA; details: Table 7
smiles,measurement,setting,value
"COc1ccc2nc3cc(Cl)ccc3c(Nc3ccc(O)c(CN4CCN(C)CC4)c3)c2c1 [Compound F06, 4-((6-Chloro-2-methoxyacridin-9-yl)amino)-2-((4-methylpiperazin-1-yl)methyl)phenol, reference compound]",LogD (rating),ADME screening: LogD; Table 8,Good
same,LogD (remark in the LogD row),ADME screening: LogD; Table 8,(partially soluble)
same,logD,ADME screening: LogD; Table 8,3.86
same,log D,ADME screening: LogD; pH 7.4,3.86
same,Solubility (in words),[1],(partially soluble)
same,solubility,[1]; <1.56 means below lower limit of quantilation,8.13 µM
same,Cell permeability (Mean recovery %) (in words),[2],Low (common)
same,efflux ratio,[2],> 2
same,efflux ratio,[2]; efflux ratio,11.2
same,effect on the interaction between ERCC1 and XPF (in words),[3],repressed the interaction between ERCC1 and XPF in vitro
same,Microsomal stability in vitro CLint (in words),[4],high
same,CLint scaled,"[4]; human, liver microsomes",53.7 mL/min/kg
same,cells survived,HCT116 cells [5],about 35%
same,"sensitisation to UV radiation, clonogenic survival (in words)",HCT116 cells [6],modest sensitisation capacity
same,Serum protein binding (% bound),serum proteins,(99.9) % bound
same,Serum protein binding (in words),serum proteins,Strong binding
same,IC50,ERCC1-XPF,1860 nM
same,IC50,"ERCC1-XPF; Table 7, at least three experiments of Vo versus concentration",1860 ± 250 nM
same,inhibition of ERCC1-XPF endonuclease activity (in words),ERCC1-XPF,marked capacity to inhibit
same,IC50,"ERCC1-XPF; read-out: IC50 of ERCC1-XPF endonuclease activity, full-length ERCC1-XPF, 30 minutes incubation, 5% DMSO",1860 ± 250 nM
same,IC50,"ERCC1-XPF; read-out: IC50 ± SD, Table 6, at least three experiments of Vo versus concentration, 30 minutes incubation, 5% DMSO",1860 ± 250 nM
same,sensitization of cancer cells to MMC and cisplatin (in words),cancer cells,sensitized cancer cells to MMC and cisplatin
same,Kd,"ERCC1-XPF complex; Table 6, read-out: Kd ± SD",140 ± 5 nM
same,Kd,"ERCC1-XPF complex; Table 7, read-out: Kd protein",140 ± 5 nM
same,CVP inhibition (5 enzyme) (rating),[7],Moderate
same,IC50,[8],≥ 1000 nM
same,Hepatocyte stability in vitro CLint (in words),[9],(medium clearance)
same,CLint scaled,[9]; hepatocytes,< 17.8 mL/min/kg
CN(C)CCN1CCN(Cc2cc(Nc3c4ccc(Cl)cc4nc4ccc(O)cc34)ccc2O)CC1 [Gen B9],LogD (rating),ADME screening: LogD; Table 8,Good
same,logD,ADME screening: LogD; pH 7.4,2.01
same,Solubility (in words),[1],Unstable
same,"sensitisation to cyclophosphamide, clonogenic survival (in words)",HCT116 cells [10],significantly sensitised the HCT116 cells to cyclophosphamide
same,Cell permeability (Mean recovery %) (in words),[2],Low
same,efflux ratio,[2],> 2
same,metabolism on exposure to human liver microsomes (in words),[4],moderate metabolism
same,Microsomal stability in vitro CLint (in words),[4],Moderate
same,cells survived,HCT116 cells [5],approximately 95%
same,"sensitisation to UV radiation, clonogenic survival (in words)",HCT116 cells [6],significantly reduced the survival
same,inhibition of cellular removal of CPDs / thymidine dimers (in words),HCT116 cells [11],significantly inhibited the removal of CPDs
same,inhibition of cellular removal of CPDs / thymidine dimers (in words),HCT116 cells [11]; listed as B9,significantly different
same,inhibition of ERCC1-XPF endonuclease activity (in words),ERCC1-XPF,marked capacity to inhibit
same,IC50,"ERCC1-XPF; full-length ERCC1-XPF, 30 minutes incubation, 5% DMSO, read-out: IC50 of ERCC1-XPF endonuclease activity",490 nM
same,Kd,"ERCC1-XPF complex; Table 7, read-out: Kd protein",85 ± 5 nM
same,Kd,DNA,1050 ± 50 nM

# Reference: patent US20220306603A1, “TARGETING DNA REPAIR IN TUMOR CELLS VIA INHIBITION OF ERCC1-XPF” (The Governors of the University of Alberta, priority 2019, published 2022)
